Experimental findings from patent publication US8802656B2, “Purified phospholipid-non-steroidal anti-inflammatory drug associated compositions and methods for preparing and using same” (priority 2004, dated 2014) are described below.

The experiment deals with rats injected with CFA in a hind paw. The experiment in a line: Pain pressure threshold (modified Randall-Selitto) in rats with CFA-inflamed hind paw, acute oral dosing. The format is in vivo, rat. Particulars: for pain pressure threshold: ibuprofen 20 or 50 mg/kg, indomethacin 1 mg/kg intragastric, two hours after dosing, CFA 4 days before, FIG. 4. The protocol: In the second in vivo experiment, we compared the analgesic activity of the acetone preparation of PC-ibuprofen to that of ibuprofen alone (at doses of 20 and 50 mg/kg) in rats and compared the response to a sub-threshod dose of indomethacin (1 mg/kg). The measurements were made on rats, in which 0.1 mL of Complete Freund's Adjuvant (CFA) was subcutaneously injected into the dorsal surface of the left hindpaw, 4 days previously to increase the affected paw's sensitivity to pressure. […] Myeloperoxidase Activity In this experiment, we evaluated the analgesic activity of the test material using a rodent model system previously described in detail. This was accomplished by initially inducing inflammation of a hind paw of male Sprague Dawley rats by subcutaneously injecting 0.1 mL of Complete Freund's Adjuvant (Sigma Chemical Co. St. Louis, Mo.) into the doral surface of the left hind paw. […] For comparison, we also intragastrically administered a group of rats with a sub-threshold dose (1 mg/kg) of the NSAID, indomethacin, that was suspended in 1% methyl cellulose.

Molecules are shown by their SMILES. “Also recorded” adds a separate entry of the source.

Take `CC(C)Cc1ccc(C(C)C(=O)O)cc1` (stereo not shown) [ibuprofen]: the pain pressure threshold result was “dose-dependent increase in pain pressure threshold” (listed as generic ibuprofen) and “apparent dose-dependent increase in pain pressure threshold” (listed as unmodified ibuprofen). `COc1ccc2c(c1)c(CC(=O)O)c(C)n2C(=O)c1ccc(Cl)cc1` [indomethacin]: the pain pressure threshold result is reported as “no effect; also recorded: non-significant response”.

As for `CC(=O)Oc1ccccc1C(=O)O` [ASA, Aspirin], for the setting “CFA induced inflammation, Randall Siletto procedure, ASA formulations, FIG. 13”, the pain threshold entry is listed as “performed similarly”.
